Results published in patent publication US6737383B1, “Herbicidal oxadiazolidines” (priority 1999, dated 2004).

Assays:
bedstraw = test: Test B pre/postemergence bedstraw; assay type: in vivo, Galium aparine; settings: Postemergence
Summary of the method: (§1)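 Test chemicals in a non-phytotoxic solvent mixture with surfactant were sprayed preemergence onto planted seeds and postemergence onto plants 2 to 18 cm tall (1- to 4-leaf stage). After twelve to sixteen days in a greenhouse, injury was visually rated against untreated controls from 0 (no effect) to 10 (complete control).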

surinam grass = test: Test B pre/postemergence surinam grass; assay type: in vivo, Brachiaria decumbens
Summary of the method: as §1

purple nutsedge = test: Test B pre/postemergence purple nutsedge; assay type: in vivo, Cyperus rotundus
Summary of the method: as §1

bamyardgrass = test: Test B flood test barnyardgrass; assay type: in vivo, Echinochloa crus-galli
Summary of the method: (§2)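 Flood test on plants grown to the 2-leaf stage; treated plants kept in greenhouse twelve to sixteen days, then visually rated against controls on a 0 (no effect) to 10 (complete control) scale.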

pigweed = test: Test B pre/postemergence pigweed; assay type: in vivo, Amaranthus retroflexus
Summary of the method: as §1

morningglory = test: Test B pre/postemergence morningglory; assay type: in vivo, Ipomoea hederacea
Summary of the method: as §1

sugar beet = test: Test B pre/postemergence sugar beet; assay type: in vivo, Beta vulgaris
Summary of the method: as §1

rape = test: Test B pre/postemergence rape; assay type: in vivo, Brassica napus
Summary of the method: as §1

cocklebur = test: Test B pre/postemergence cocklebur; assay type: in vivo, Xanthium strumarium
Summary of the method: as §1

corn = test: Test B pre/postemergence corn; assay type: in vivo, Zea mays
Summary of the method: as §1

smallflower flatsedge = test: Test B flood test smallflower flatsedge; assay type: in vivo, Cyperus difformis
Summary of the method: as §2

rice = test: Test B flood test rice; assay type: in vivo, Oryza sativa
Summary of the method: as §2

soybean = test: Test B pre/postemergence soybean; assay type: in vivo, Glycine max
Summary of the method: as §1

wild oat = test: Test B pre/postemergence wild oat; assay type: in vivo, Avena fatua
Summary of the method: as §1

velvetleaf = test: Test B pre/postemergence velvetleaf; assay type: in vivo, Abutilon theophrasti
Summary of the method: as §1

blackgrass = test: Test B pre/postemergence blackgrass; assay type: in vivo, Alopecurus myosuroides
Summary of the method: as §1

[1] = Postemergence, Rate 125 g/ha, scale 0 to 10, 0 is no effect, 10 is complete control
[2] = Preemergence, Rate 62 g/ha, scale of 0 to 10 where 0 is no effect and 10 is complete control
[3] = Preemergence, Rate 250 g/ha, scale of 0 to 10 where 0 is no effect and 10 is complete control
[4] = Preemergence, Rate 500 g/ha, scale of 0 to 10 where 0 is no effect and 10 is complete control
[5] = Rate 62 g/ha, Postemergence, scale 0 to 10 (0 no effect, 10 complete control)
[6] = Rate 250 g/ha, Postemergence, scale of 0 to 10 where 0 is no effect and 10 is complete control
[7] = Rate 500 g/ha, Postemergence, scale 0 to 10, 0 no effect, 10 complete control
[8] = Rate 62 g/ha, headed Pre-emergence (flood test species), scale 0 to 10 (0 no effect, 10 complete control)
[9] = Rate 125 g/ha, Pre-emergence, flood test species, scale 0 to 10 where 0 is no effect and 10 is complete control
[10] = Rate 250 g/ha, Pre-emergence, flood-test species, scale 0 to 10, 0 is no effect, 10 is complete control
[11] = Rate 500 g/ha, Pre-emergence, flood test species, scale 0 to 10 (0 no effect, 10 complete control)

Structure (SMILES): CC(C)N(C(=O)n1oc(=O)n(C2CC3CCC2C3)c1=O)c1ccc(F)cc1F (stereo not drawn) [Compound 326]
- Plant response rating, Bedstraw (bedstraw; Rate 125 g/ha, scale 0 to 10, 0 is no effect, 10 is complete control): 5
- Plant response rating, Bedstraw (bedstraw; Rate 250 g/ha, scale of 0 to 10 where 0 is no effect and 10 is complete control): 7
- Plant response rating, B. signalgrass (surinam grass; [1]): 0
- B. signalgrass plant response rating (surinam grass; [2]): 0
- B. signalgrass plant response rating (0 to 10 scale, 0 is no effect, 10 is complete control) (surinam grass; Preemergence, Rate 125 g/ha): 0
- B. signalgrass plant response rating (surinam grass; [3]): 3
- B. signalgrass plant response rating (surinam grass; [4]): 7
- B. signalgrass plant response rating (surinam grass; [5]): 0
- Plant response rating, B. signalgrass (surinam grass; [6]): 0
- Plant response rating, B. signalgrass (surinam grass; [7]): 0
- Plant response rating, Nutsedge (purple nutsedge; [1]): 0
- Nutsedge plant response rating (purple nutsedge; [2]): 0
- Nutsedge plant response rating (purple nutsedge; [3]): 0
- Nutsedge plant response rating (purple nutsedge; [4]): 0
- Nutsedge plant response rating (purple nutsedge; [5]): 0
- Plant response rating, Nutsedge (purple nutsedge; [6]): 0
- Plant response rating, Nutsedge (purple nutsedge; [7]): 0
- Barnyardgrass plant response rating (bamyardgrass; [8]): 0
- Barnyardgrass plant response rating (bamyardgrass; [9]): 0
- Barnyardgrass plant response rating (bamyardgrass; [10]): 8
- Barnyardgrass plant response rating (bamyardgrass; [11]): 9
- Plant response rating, Redroot pigweed (pigweed; [1]): 4
- Redroot pigweed plant response rating (pigweed; [2]): 1
- Redroot pigweed plant response rating (0 to 10 scale) (pigweed; Preemergence, Rate 125 g/ha): 3
- Redroot pigweed plant response rating (pigweed; [3]): 6
- Redroot pigweed plant response rating (pigweed; [4]): 7
- Redroot pigweed plant response rating (pigweed; [5]): 3
- Plant response rating, Redroot pigweed (pigweed; [6]): 4
- Plant response rating, Redroot pigweed (pigweed; [7]): 7
- Plant response rating, Morningglory (morningglory; [1]): 7
- Morningglory plant response rating (morningglory; [2]): 0
- Morningglory plant response rating (0 to 10 scale) (morningglory; Preemergence, Rate 125 g/ha): 0
- Morningglory plant response rating (morningglory; [3]): 0
- Morningglory plant response rating (morningglory; [4]): 0
- Morningglory plant response rating (morningglory; [5]): 5
- Plant response rating, Morningglory (morningglory; [7]): 10
- Plant response rating, Sugarbeets (sugar beet; [1]): 0
- Sugarbeets plant response rating (sugar beet; [2]): 0
- Sugarbeets plant response rating (0 to 10 scale) (sugar beet; Preemergence, Rate 125 g/ha): 0
- Sugarbeets plant response rating (sugar beet; [3]): 0
- Sugarbeets plant response rating (sugar beet; [4]): 2
- Sugarbeets plant response rating (sugar beet; [5]): 0
- Plant response rating, Sugarbeets (sugar beet; [6]): 0
- Plant response rating, Sugarbeets (sugar beet; [7]): 0
- Plant response rating, Rape (rape; [1]): 0
- Rape plant response rating (rape; [2]): 0
- Rape plant response rating (0 to 10 scale) (rape; Preemergence, Rate 125 g/ha): 0
- Rape plant response rating (rape; [3]): 0
- Rape plant response rating (rape; [4]): 1
- Rape plant response rating (rape; [5]): 0
- Plant response rating, Rape (rape; [6]): 1
- Plant response rating, Rape (rape; [7]): 3
- Plant response rating, Cocklebur (cocklebur; [1]): 0
- Cocklebur plant response rating (cocklebur; [2]): 0
- Cocklebur plant response rating (0 to 10 scale) (cocklebur; Preemergence, Rate 125 g/ha): 0
- Cocklebur plant response rating (cocklebur; [3]): 0
- Cocklebur plant response rating (cocklebur; [4]): 0
- Cocklebur plant response rating (cocklebur; [5]): 0
- Plant response rating, Cocklebur (cocklebur; [6]): 0
- Plant response rating, Cocklebur (cocklebur; [7]): 2
- Plant response rating, Corn (corn; [1]): 0
- Corn plant response rating (corn; [2]): 0
- Corn plant response rating (0 to 10 scale) (corn; Preemergence, Rate 125 g/ha): 0
- Corn plant response rating (corn; [3]): 0
- Corn plant response rating (corn; [4]): 2
- Corn plant response rating (corn; [5]): 0
- Plant response rating, Corn (corn; [6]): 0
- Plant response rating, Corn (corn; [7]): 0
- S. Flatsedge plant response rating (smallflower flatsedge; [8]): 0
- S. Flatsedge plant response rating (smallflower flatsedge; [9]): 0
- S. Flatsedge plant response rating (smallflower flatsedge; [10]): 0
- S. Flatsedge plant response rating (smallflower flatsedge; [11]): 0
- Rice plant response rating (rice; [8]): 0
- Rice plant response rating (rice; [9]): 0
- Rice plant response rating (rice; [10]): 0
- Rice plant response rating (rice; [11]): 0
- Plant response rating, Soybean (soybean; [1]): 5
- Soybean plant response rating (soybean; [2]): 0
- Soybean plant response rating (0 to 10 scale) (soybean; Preemergence, Rate 125 g/ha): 0
- Soybean plant response rating (soybean; [3]): 0
- Soybean plant response rating (soybean; [4]): 0
- Soybean plant response rating (soybean; [5]): 3
- Plant response rating, Soybean (soybean; [6]): 5
- Plant response rating, Soybean (soybean; [7]): 6
- Plant response rating, Wild oats (wild oat; [1]): 0
- Wild oats plant response rating (wild oat; [2]): 0
- Wild oats plant response rating (0 to 10 scale) (wild oat; Preemergence, Rate 125 g/ha): 1
- Wild oats plant response rating (wild oat; [3]): 3
- Wild oats plant response rating (wild oat; [4]): 3
- Wild oats plant response rating (wild oat; [5]): 0
- Plant response rating, Wild oats (wild oat; [6]): 0
- Plant response rating, Wild oats (wild oat; [7]): 0
- Plant response rating, Velvetleaf (velvetleaf; [1]): 0
- Velvetleaf plant response rating (velvetleaf; [2]): 0
- Velvetleaf plant response rating (0 to 10 scale) (velvetleaf; Preemergence, Rate 125 g/ha): 0
- Velvetleaf plant response rating (velvetleaf; [3]): 0
- Velvetleaf plant response rating (velvetleaf; [4]): 0
- Velvetleaf plant response rating (velvetleaf; [5]): 0
- Plant response rating, Velvetleaf (velvetleaf; [6]): 2
- Plant response rating, Velvetleaf (velvetleaf; [7]): 2
- Plant response rating, Blackgrass (blackgrass; [1]): 0
- Blackgrass plant response rating (blackgrass; [2]): 0
- Blackgrass plant response rating (0 to 10 scale) (blackgrass; Preemergence, Rate 125 g/ha): 5
- Blackgrass plant response rating (blackgrass; [3]): 7
- Blackgrass plant response rating (blackgrass; [4]): 8
- Blackgrass plant response rating (blackgrass; [5]): 0
- Plant response rating, Blackgrass (blackgrass; [6]): 0
- Plant response rating, Blackgrass (blackgrass; [7]): 1
